Measurements reported in patent publication US9388153B2, “Secondary amines as therapeutic agents” (Allergan, Inc., priority 2013, dated 2016).

Key:
EP4 = EP4 (Homo sapiens, UniProt P35408); experiment: EP4 binding (KI); conditions: NA = Not Active; read-out: EP4 data (EC50 in nM) KI
Source text: (§1) U.S. patent application publication No. 20070129552, published on Jun. 7, 2007, incorporated by reference herein, describes the methods used to obtain the in vitro data in Table 1 below.

EP2 [1] = molecular target: T1, EP2 (Homo sapiens, UniProt P43116); experiment: EP2 cAMP functional assay; format: cell-based; conditions: NA = Not Active
Source text: as §1

EP2 [2] = molecular target: T1, EP2; experiment: EP2 binding (Ki); conditions: NA = Not Active; read-out: EP2 Data (EC50 in nM) Ki
Source text: as §1

EP4, sequence (P35408 whole entry): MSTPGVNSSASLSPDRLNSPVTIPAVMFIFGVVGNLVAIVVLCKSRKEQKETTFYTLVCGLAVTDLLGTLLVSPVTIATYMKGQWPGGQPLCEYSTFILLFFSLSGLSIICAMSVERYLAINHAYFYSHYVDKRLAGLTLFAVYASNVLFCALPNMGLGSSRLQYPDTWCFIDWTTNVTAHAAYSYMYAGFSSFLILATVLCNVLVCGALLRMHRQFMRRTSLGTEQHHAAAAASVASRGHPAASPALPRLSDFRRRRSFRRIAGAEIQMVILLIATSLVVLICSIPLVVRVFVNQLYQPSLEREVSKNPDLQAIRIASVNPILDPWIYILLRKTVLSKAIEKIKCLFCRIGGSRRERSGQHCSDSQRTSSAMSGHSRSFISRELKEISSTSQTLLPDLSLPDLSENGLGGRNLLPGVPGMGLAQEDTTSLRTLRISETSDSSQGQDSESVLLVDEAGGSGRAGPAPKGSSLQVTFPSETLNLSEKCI
T1 sequence (P43116 whole entry): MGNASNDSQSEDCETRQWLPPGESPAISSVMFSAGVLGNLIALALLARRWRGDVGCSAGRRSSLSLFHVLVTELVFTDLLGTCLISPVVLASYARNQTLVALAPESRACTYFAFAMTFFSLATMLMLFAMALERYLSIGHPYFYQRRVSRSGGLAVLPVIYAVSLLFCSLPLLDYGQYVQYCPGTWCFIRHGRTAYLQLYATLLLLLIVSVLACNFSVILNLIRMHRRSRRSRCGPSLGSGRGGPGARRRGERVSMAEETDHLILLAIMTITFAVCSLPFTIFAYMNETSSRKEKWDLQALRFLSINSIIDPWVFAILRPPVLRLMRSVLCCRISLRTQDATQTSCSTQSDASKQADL

Structure (SMILES): O=C(O)COc1cccc(NC2CCc3ccc(-c4cccc(F)c4)cc32)c1 (stereo not drawn) [Example 1, 2-(3-((6-(3-Fluorophenyl)-2,3-dihydro-1H-inden-1-yl)amino)phenoxy)acetic acid]
- Ki (EP4): 3050 nM
- EC50 (EP2 [1]): 11 nM
- Ki (EP2 [2]): 80 nM

Structure (SMILES): CN(c1cccc(OCC(=O)O)c1)C1CCc2ccc(-c3cccc(F)c3)cc21 (stereo not drawn) [Example 3, 2-(3-((6-(3-Fluorophenyl)-2,3-dihydro-1H-inden-1-yl)(methyl)amino)phenoxy)acetic acid]
- Ki (EP4): 7320 nM
- EC50 (EP2 [1]): 697 nM
- Ki (EP2 [2]): 1810 nM

Structure (SMILES): CCN(c1cccc(OCC(=O)O)c1)C1CCc2ccc(-c3cccc(F)c3)cc21 (stereo not drawn) [Example 4, 2-(3-(Ethyl(6-(3-fluorophenyl)-2,3-dihydro-1H-inden-1-yl)amino)phenoxy)acetic acid]
- Ki (EP4): 6640 nM
- EC50 (EP2 [1]): 8300 nM
- Ki (EP2 [2]): 3940 nM

Structure (SMILES): O=C(O)COc1cccc(OC2CCc3ccc(-c4cccc(F)c4)cc32)c1 (stereo not drawn) [Example 5, 2-(3-((6-(3-Fluorophenyl)-2,3-dihydro-1H-inden-1-yl)oxy)phenoxy)acetic acid]
- EC50 (EP2 [1]): 747 nM
- Ki (EP2 [2]): 144 nM

Structure (SMILES): O=C(O)COc1cccc(NC2CCCc3ccc(-c4cccc(F)c4)cc32)c1 (stereo not drawn) [Example 6, 2-(3-((7-(3-Fluorophenyl)-1,2,3,4-tetrahydronaphthalen-1-yl)amino)phenoxy)acetic acid]
- Ki (EP4): 3630 nM
- EC50 (EP2 [1]): 438 nM
- Ki (EP2 [2]): 104 nM

Structure (SMILES): OCCOc1cccc(NC2CCCc3ccc(-c4cccc(F)c4)cc32)c1 (stereo not drawn) [Example 7, 2-(3-((7-(3-Fluorophenyl)-1,2,3,4-tetrahydronaphthalen-1-yl)amino)phenoxy)ethanol]
- Ki (EP4): 6280 nM

Structure (SMILES): O=C(O)COc1cccc(NC2COc3ccc(-c4cccc(F)c4)cc32)c1 (stereo not drawn) [Example 8, 2-(3-((5-(3-Fluorophenyl)-2,3-dihydrobenzofuran-3-yl)amino)phenoxy)acetic acid]
- Ki (EP4): 7990 nM
- EC50 (EP2 [1]): 0.6 nM
- Ki (EP2 [2]): 13 nM
